Data on five compounds can be found in article PMC8911630, “New Pharmacological Strategies against Pancreatic Adenocarcinoma: The Multifunctional Thiosemicarbazone FA4” (Molecules, 2022).

In series [1] the test system is PANC-1 cell line. In words: Cytotoxicity in PANC-1 cell line. Type of series: cell-based, human.
Series [2] deals with PDAC-1 cells. The series can be described thus: cells. The settings on record: Homo sapiens, 72 h, read-out: Cytotoxicity IC50 ± SD.
Procedure: (§9) Human pancreatic adenocarcinoma primary cultures (PDAC1 and PDAC2) were cultured in RPMI + 10 % New Born Calf Serum + 1% Penicillin/ Streptomycin and maintained in standard conditions for <20 passages. Cells were routinely tested for Mycoplasma spp. and were free of contamination.
(§10) Cells were seeded in 96-well flat-bottom plates at a density of 3000/well, using both a control plate and an experimental plate. After 24 h, the control plate was fixed with cold 50% trichloroacetic acid, and the incubation with the compound of interest was performed in the experimental plate. After 72 h of incubation, the experimental plate was also fixed. Subsequently, both plates were washed and stained with the SRB solution, and after vigorous washing and drying, the bound dye was extracted from the cells with an alkaline solution. The absorption of SRB was measured spectrophotometrically at a wavelength of 490 nm and 540 nm. […] Thus, cell growth inhibition was calculated as the percentage versus vehicle-treated cells (“negative control”) OD (corrected for OD of the control plate before drug addiction). Finally, the half maximal inhibitory concentration (IC50) was calculated by nonlinear least squares curve fitting (GraphPad Prism 7, Intuitive Software for Science, San Diego, CA, USA), as described previously [33]. […]
The test system of series [3] is PDAC xenografts. Also noted: method as in PMID 34586588. The conditions noted are these: cited from earlier work.
In series [4] the test system is PDAC-1 cells. In words: Apoptosis assay (annexinV-FITC), PDAC-1. Format: cell-based, human. As to the method: (§1) Previous studies reported that the modulation of σ2 receptor activity contributes to the initiation of the apoptotic process. Therefore, we evaluated the effect of FA4 on the induction of apoptosis in the PDAC primary cultures. To this aim, we measured the externalization of the plasma membrane phosphatidylserine, a reliable marker of cell apoptosis, which was quantified by the measurement of the fluorescence of annexin-V by spectrophotometric assay and microscopy. After 24 h of treatment with 10 μM FA4, a significant increase in the portion of apoptotic cells was observed compared to untreated control cells. The highest apoptotic index was measured in the PDAC-2 cells (17.6 ± 3.6, compared to 15.5 ± 4.9 in the PDAC-1 cells).
(§2) Cells were seeded in 96-well plates (5 × 10^3 cells/well), and after 24 h, the cells were fixed with 4% paraformaldehyde in PBS for 30 min, then washed twice with PBS and stained with annexinV-FITC in binding buffer (10 mM HEPES/NaOH pH 7.4, 140 mM NaCl, and 2.5 mM CaCl2) for 10 min in the dark at room temperature. Lastly, cells were washed with the assay binding buffer solution, and fluorescence was measured by using a multimode plate reader with excitation and emission filters at 485 nm and 535 nm, respectively, to determine the apoptotic index. […]

The subject of series [5] is pancreatic ductal adenocarcinoma (PDAC) primary cell cultures. The series can be described thus: Antiproliferative activity on PDAC primary cell cultures (both cultures together). Format: cell-based. The settings on record: Homo sapiens; range over PDAC primary cell cultures; read-out: half maximal inhibitory concentration (IC50). The source says:
A new sigma-2 (σ2) receptor ligand (FA4) was efficiently synthesized and evaluated for cytotoxic, proapoptotic, and antimigratory activity on pancreatic ductal adenocarcinoma (PDAC) primary cell cultures, which restrained the aggressive and chemoresistant behavior of PDAC. […] The cytotoxic activity was associated with induction of apoptosis, resulting in apoptotic indexes higher than those observed after exposure to a clinically relevant concentration of the gemcitabine, the first-line drug used against PDAC.

For series [6], the system named is PANC-1 cell line. Also noted: method as in PMID 34586588. The settings on record: read-out: Cytotoxicity IC50 ± SD PANC-1; cited from earlier work.
For series [7], the system named is PDAC-2 cells. The series can be described thus: Scratch wound-healing migration assay, PDAC-2. Type of series: cell-based, human. The settings on record: PDAC-2, FA4 10 µM, 24 h. Here is the method:
(§3) Cancer cell migration is a key factor contributing to the aggressiveness of PDAC. It is therefore important to find new compounds that can counteract or stop this process. To evaluate the effect of FA4 on cell migratory properties, a migration assay was performed by incubating cells for 24 h with FA4.
(§4) Cells were seeded into 96-well plates 72 h before the assay at a density of 5 × 10^4 /well and allowed to attach and to become confluent. Subsequently, a scratch was performed in every well with a 96-pin scratcher, allowing the formation of uniform scratches. Immediately after this passage, cells were cultured for 24 h in complete medium with the drug of interest for experimental wells or without any drug for the control wells. Pictures were taken with an optical microscope at different time points (0, 6, and 24 h) and analyzed with the Scratch Assay 6.2 software (Digital Cell Imaging Labs, Keerbergen, Belgium). The migration assay was performed in technical and biological triplicates, as reported previously.

Series [8] concerns PDAC-1 cells. The series can be described thus: Scratch wound-healing migration assay, PDAC-1. Type of series: cell-based, human. The settings on record: PDAC-1, FA4 10 µM, 24 h. As to the method: as §3, §4
Series [9] deals with PDAC-2 cells. The series can be described thus: Apoptosis assay (annexinV-FITC), PDAC-2. Type of series: cell-based, human. As to the method: as §1, §2
Series [10] deals with normal HPDE cells. The series can be described thus: Sulforhodamine B (SRB) assay, HPDE. Type of series: cell-based, human. The settings on record: HPDE cells vs PDAC tumor cells. On the technique in general: The SRB assay estimates cell density from bound dye.
Procedure: (§11) Cells were seeded in 96-well flat-bottom plates at a density of 3000/well, using both a control plate and an experimental plate. After 24 h, the control plate was fixed with cold 50% trichloroacetic acid, and the incubation with the compound of interest was performed in the experimental plate. After 72 h of incubation, the experimental plate was also fixed. Subsequently, both plates were washed and stained with the SRB solution, and after vigorous washing and drying, the bound dye was extracted from the cells with an alkaline solution. The absorption of SRB was measured spectrophotometrically at a wavelength of 490 nm and 540 nm. The intensity of the signal is proportional to the number of living cells and, therefore, a measure of their proliferation. Thus, cell growth inhibition was calculated as the percentage versus vehicle-treated cells (“negative control”) OD (corrected for OD of the control plate before drug addiction). Finally, the half maximal inhibitory concentration (IC50) was calculated by nonlinear least squares curve fitting (GraphPad Prism 7, Intuitive Software for Science, San Diego, CA, USA), as described previously [33]. The SRB assay was performed in technical and biological triplicates.
Series [11] in a line: Sulforhodamine B (SRB) assay, HPDE. Format: cell-based, human. The conditions noted are these: human; HPDE nontransformed cells, SRB, 72 h; read-out: Cytotoxicity IC50 ± SD.
Procedure: as §11
Series [12] relates to PDAC-2 cells. In words: cells. The conditions noted are these: Homo sapiens, PDAC-2, 72 h, read-out: Cytotoxicity IC50 ± SD.
Procedure: as §9, §10
Series [13] relates to normal fibroblast Hs27 cells. The series can be described thus: Sulforhodamine B (SRB) assay, Hs27. Format: cell-based, human. The conditions noted are these: Hs27 cells vs PDAC tumor cells.
Procedure: as §11
Series [14] is described as follows: Sulforhodamine B (SRB) assay, Hs27. Format: cell-based, human. The conditions noted are these: human, normal skin fibroblast Hs27 cells; Hs27 nontransformed cells, SRB, 72 h; read-out: Cytotoxicity IC50 ± SD.
Procedure: as §11
Series [15] addresses σ1 receptor (Cavia porcellus, UniProt Q60492). In words: σ1 receptor radioligand binding assay. The settings on record: mean of n ≥ 3 separate experiments in duplicate, read-out: Ki ± SD σ1. As to the method: (§5) The compounds underwent radioligand binding assays on σ1 and σ2 receptors, according to the previously adopted protocols.
(§6) σ1 and σ2 receptor binding were carried out following Matsumoto et al.. […] All the procedures for the binding assays were described previously by Abate and collaborators.

The target of series [16] is T1, σ2 receptor (Rattus norvegicus, UniProt Q5U3Y7).
T1 sequence (Q5U3Y7 1-176): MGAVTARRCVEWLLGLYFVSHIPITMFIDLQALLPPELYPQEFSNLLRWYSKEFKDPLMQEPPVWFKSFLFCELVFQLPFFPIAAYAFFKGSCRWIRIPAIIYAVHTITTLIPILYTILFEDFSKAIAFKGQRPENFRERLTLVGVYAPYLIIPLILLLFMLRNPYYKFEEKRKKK
In words: σ2 receptor radioligand binding assay. Here is the method: as §5, §6

Series [17] deals with lung adenocarcinoma A549 cells. In words: Cytotoxicity in A549 cells. The conditions noted are these: Homo sapiens. Type of series: cell-based. As to the method:
(§7) On the other hand, the data also confirmed the need for a strategy with a greater impact on pancreatic tumors. From this perspective, the multitarget FA4 appeared to be a promising candidate and was selected to be further investigated in the primary PDAC cell cultures of the present study.
(§8) Previous experiments were performed with human pancreas cancer cell lines PANC-1 (CRL-1469™), MiaPaCa2 (CRL-1420™), BxPC-3 (CRL-1687™), PANC-02.03 (CRL-2553™), AsPC-1 (CRL-1682™), human A549 lung cancer cells (CRM-CCL-185™), human MCF7 adenocarcinoma breast cells (HTB-22™), and human HepG2 hepatocarcinoma cells (HB-8065™), obtained from ATCC. PANC-1, MiaPaCa2, BxPC-3, PANC-02.03, AsPC-1, and MCF7cells were cultured in DMEM with heat inactivated 10% FBS, penicillin ([…]), and streptomycin ([…]). HepG2 cells were cultured in MEM supplemented with 10% (v/v) heat inactivated FPS, 1% (v/v) glutamine, 1% (v/v) penicillin, and streptomycin, 1% (v/v) NEAA. A549 cells were grown in HAM’S F12 supplemented with 10% heat inactivated FBS, 2 mM glutamine, 100 U mL^−1 penicillin, and 100 μg/mL streptomycin. All these cells were kept at 37 °C in a humidified incubator under an atmosphere of 5% CO2 in 75 cm^2 tissue culture flasks (Greiner Bio-One GmbH, Frickenhausen, Germany) and were harvested with trypsin-EDTA in their exponentially growing phase.

In series [18] the test system is breast adenocarcinoma MCF7 cells. In words: Cytotoxicity in MCF7 cells. Type of series: cell-based. The conditions noted are these: Homo sapiens. Here is the method:
as §7, §8

The test system of series [19] is hepatocarcinoma HepG2 cells. In words: Cytotoxicity in HepG2 cells. Type of series: cell-based. The conditions noted are these: Homo sapiens. Here is the method: as §7, §8
Where [20] appears, read: Homo sapiens, PANC-1, read-out: Cytotoxicity IC50 ± SD PANC-1.

Read-outs that look alike come from different tables or passages of the source. Bounds are passed on as bounds.

By Ki is commonly meant the dissociation constant of the complex between target and ligand, obtained from inhibition or displacement.

σ1 receptor, sequence (Q60492 whole entry): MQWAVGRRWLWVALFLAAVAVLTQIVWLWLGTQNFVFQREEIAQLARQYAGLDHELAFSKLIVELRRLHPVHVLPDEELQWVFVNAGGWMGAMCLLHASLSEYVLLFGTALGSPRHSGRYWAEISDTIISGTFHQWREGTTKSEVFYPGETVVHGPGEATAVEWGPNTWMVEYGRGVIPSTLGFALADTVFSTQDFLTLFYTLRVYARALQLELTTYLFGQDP

With `CC(C)=CCN1CC[C@]2(C)c3cc(O)ccc3C[C@H]1[C@H]2C` [(+)-pentazocine], the IC50 in [1] (setting [20]) was above 50 µM.

On to `Cc1ccccc1N=C(N)Nc1ccccc1C` [DTG], for which the IC50 in series [1] (PANC-1 cell line, read-out: Cytotoxicity IC50 ± SD PANC-1) is above 50 µM.

For `CN(C)C(=S)N/N=C1\C(=O)N(CCCCN2CCC3(CC2)OCc2ccccc23)c2ccccc21` [FA4], the IC50 in [2] is 0.825 ± 0.006 µM; in series [5] it was 0.701 to 0.825 µM; in series [6], 3.01 ± 0.9 µM; in series [12], 0.701 ± 0.059 µM. Further, in series [3], the “safety in PDAC xenografts” value is given as “safe”. Further, the apoptotic index is 15.5 ± 4.9 in series [4] (PDAC-1, 10 μM, 24 h, annexinV-FITC fold change compared to control cells) and 17.6 ± 3.6 in series [9] (PDAC-2, 10 μM, 24 h, annexinV-FITC fold change compared to control cells). The “percentages of apoptotic cells compared to gemcitabine at 10 μM” value in series [4] (PDAC-1, 24 h treatment) was “significantly higher”; in [9] (PDAC-2, 24 h treatment) it was “significantly higher”. Moreover, the migration rate result in series [7] and in series [8] was “significantly inhibit the migration rate” in each case. For the same compound, the “selectivity index (SI, IC50 non-tumor cells/IC50 tumor cells)” value worked out at 11 in series [10] and 7 in series [13]. For the same compound, the IC50 at 72 h in series [11] is 8.07 ± 0.302 µM; in series [14] it was 5.55 ± 0.333 µM.

In the case of `c1ccc2c(c1)COC21CCN(CCCCn2ccc3ccccc32)CC1` [MT8, 1’-(4-(1H-indol-1-yl)butyl)-3H-spiro[isobenzofuran-1,4’-piperidine]], the results for the Ki in series [15] and in series [16] were 0.0273 ± 0.0026 µM and 0.00043 ± 0.0001 µM, respectively. Further, the IC50 in series [17] came out at 4.29 µM; in series [18], 6.02 µM; in series [1] (setting [20]) it was 19.1 ± 1.3 µM; in [19], 3.2 µM. For the same compound, the “cytotoxic potency relative to FA4” value in series [1] is on record as “six-fold less potent than FA4”.

On to `Fc1ccc(-n2cc(CCCCN3CCC4(CC3)OCc3ccccc34)c3ccccc32)cc1` [Siramesine], for which the IC50 in series [1] (Homo sapiens, PANC-1 cell line, read-out: Cytotoxicity IC50 ± SD PANC-1) was above 50 µM.
